Here are results for three compounds from patent US10464925B2, “Methods to induce targeted protein degradation through bifunctional molecules” (Dana-Farber Cancer Institute, Inc., priority 2015, dated 2019).

Assay [1] has as its system MV4-11. Nature of the assay: Analysis of apoptotic cells by Caspase Glo assay. The conditions noted are these: MV4-11, 4 or 8 hours treatment, assessed at 24 hours. The class given is cell-based.
Assay [2] has as its target T1, BRD4 (Homo sapiens, UniProt O60885). The assay is described as follows: Immunoblot for BRD4 in MV4-11 cells. Type of assay: cell-based.
Assay [3] relates to 797. Nature of the assay: Cell viability, 797 cells (Table 4). Type of assay: cell-based. The conditions noted are these: read-out: IC50 (nM) 797.
Assay [4] concerns the target T2, CRBN (Homo sapiens, UniProt Q96SW2).
T2 construct: endogenous in cells
The assay is described as follows: Intracellular CRBN Engagement Assay (dFKBP7 rescue). Type of assay: cell-based. The note with it: competition with 80 nM dFKBP7, 3 hours; read-out: FKBP7 rescue (EC50).

Assay [5] deals with MV4; 11. The assay is described as follows: Cell viability, ATPlite 48 hours, MV4-11. Type of assay: cell-based. The conditions noted are these: Homo sapiens, 11 cells. Background: In ATP-based viability assays light output follows the ATP content of the culture.
In assay [6] the target is LRRK2 (Homo sapiens, UniProt Q5S007). The assay is described as follows: LRRK2 IC50 (Table 4). The class given is biochemical.
Assay [7] concerns the target T1, BRD4. Nature of the assay: BRD4 AlphaScreen. The arrangement: […]; His tag (inferred from capture on Ni-coated acceptor beads). The class given is binding. A general note: Bead proximity is the source of the signal in Alpha formats.
Assay [8] deals with BRDT (Homo sapiens, UniProt Q58F21). The assay is described as follows: BRDT IC50 (Table 4). The note with it: read-out: IC50 (nM) BRDT. Type of assay: binding.
Assay [9] concerns the target T3, CRBN-DDB1 (Homo sapiens, UniProt Q96SW2).
T3 construct: 6xHis (given for the complex); made in house; host or cells: Sf9 cells (Invitrogen), pFastBac
The assay is described as follows: CRBN-DDB1 Ligand-Displacement AlphaScreen Assay (thalidomide competition).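 Note: streptavidin donor and nickel chelate acceptor bead proximity signal after 30 min incubation, normalized with no-protein background as 0% and DMSO wells as 100% activity.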 The class given is binding. The note with it: biotin-thalidomide competition; read-out: THAL ALPHA (IC50).

Assay [10] concerns the target FKBP12 (36V) (Homo sapiens, UniProt P62942, F37V). The assay is described as follows: FKBP12 (36V) Ligand-Displacement AlphaScreen Assay. The class given is binding. The note with it: biotin-SLF displacement, read-out: IC50 (nM) FKBP 36V.
The target in assay [11] is FKBP12 (WT) (Homo sapiens, UniProt P62942). The assay is described as follows: FKBP12 (WT) Ligand-Displacement AlphaScreen Assay. The note with it: biotin-SLF displacement, read-out: IC50 (nM) FKBP. Type of assay: binding.

The structures appear in SMILES notation. Read-outs that look alike come from different tables or passages of the source.

In the case of `Cc1sc2c(c1C)C(c1ccc(Cl)cc1)=N[C@@H](CC(=O)OC(C)(C)C)c1nnc(C)n1-2` [JQ1], the “induction of apoptosis after pulsed treatment and drug washout” value in assay [1] was “did not yield a pronounced apoptotic response”. Also, the “BRD4 degradation by treatment alone” value in assay [2] is “insufficient to induce BRD4 degradation”.

As to `COc1cc(C(=O)NCCCCNC(=O)COc2cccc3c2C(=O)N(C2CCC(=O)NC2=O)C3=O)ccc1Nc1ncc2c(n1)N(C)c1ccccc1C(=O)N2C` (stereo not drawn) [dBET11], the IC50 (in general, the midpoint of a concentration-inhibition curve) is > 20000 nM in assay [3]; 3.38 nM in assay [5]; 7.3 nM in assay [6]; 958 nM in assay [7] (read-out: BRD4 Alpha (IC50)); 958 nM in assay [7] (read-out: IC50 (nM) BRD4); 2900 nM in assay [8]. The 50% inhibitory concentration (IC50) in assay [9] was found to be 0.0251 µM. The EC50 (as a rule, the midpoint of the concentration-response curve) in assay [4] was found to be 2430 µM.

For `CCC(C)(C)C(=O)C(=O)N1CCCC[C@H]1C(=O)O[C@H](CCc1ccc(OC)c(OC)c1)c1cccc(NC(=O)CCC(=O)NCCCCNC(=O)COc2cccc3c2C(=O)N(C2CCC(=O)NC2=O)C3=O)c1` (stereo partly drawn) [dFKBP-1], the results for the IC50 in assay [10] and in assay [11] were 237 nM and 274 nM, respectively.
